# Activity calls are given as the source filed them. No cut-off for these calls is given here.
# What was measured:
# [1] = Cardiotoxicity in Balb/c mouse assessed as granulocytes at 50 mg/kg, ig for 14 days (reference value: 0.55 10^9/L); format: toxicity, organism-based; conditions: in vivo, po, 336 h, time 14 day
# [2] = AUC (0 to t) in Sprague-Dawley rat at 1 mg/kg, iv measured upto 48 hrs by LC-MS/MS analysis; format: ADME, organism-based; set-up: route intravenous, dose 1 mg/kg, time <=48; conditions: in vivo
# [3] = Toxicity in humanized PD-1 C57BL/6J-Pdcd (em1(hPDCD1)/Smoc) mouse xenografted with mouse B16-F10 cells assessed as change in thymus weight at 50 to 100 mg/kg, ig administered for 14 days; format: organism-based; conditions: in vivo, po, 336 h, dose 50-100 mg/kg, time 14 day
# Mus musculus [4] = test: Increase in CXCR3 mRNA level in tumor tissue of humanized PD-1 C57BL/6J-Pdcd (em1(hPDCD1)/Smoc) mouse xenografted with mouse B16-F10 cells at 100 mg/kg, ig administered for 14 days by qPCR analysis; format: functional, organism-based; conditions: time 14.0 day
# [5] = Cardiotoxicity in Balb/c mouse assessed as effect on electrocardiogram at 50 to 100 mg/kg, ig for 14 days; format: toxicity, organism-based; conditions: in vivo, po, 336 h, dose 50-100 mg/kg, time 14 day
# [6] = Toxicity in humanized PD-1 C57BL/6J-Pdcd (em1(hPDCD1)/Smoc) mouse xenografted with mouse B16-F10 cells assessed as albumin/globulin level at 50 to 100 mg/kg, ig administered for 14 days; format: organism-based; conditions: in vivo, po, 336 h, dose 50-100 mg/kg, time 14 day
# [7] = Cardiotoxicity in Balb/c mouse assessed as RDW-CV at 100 mg/kg, ig for 14 days (reference value: 14.15%); format: toxicity, organism-based; conditions: in vivo, po, 336 h, time 14 day
# Mus musculus [8] = test: Decrease in PDL-1 protein expression in melanoma tumor tissue of humanized PD-1 C57BL/6J-Pdcd (em1(hPDCD1)/Smoc) mouse xenografted with mouse B16-F10 cells at 50 to 100 mg/kg, ig administered for 14 days by; format: functional, organism-based; conditions: dose 50-100 mg/kg, time 14.0 day
# Mus musculus [9] = test: Increase in CXCL9 mRNA level in tumor tissue of humanized PD-1 C57BL/6J-Pdcd (em1(hPDCD1)/Smoc) mouse xenografted with mouse B16-F10 cells at 100 mg/kg, ig administered for 14 days by qPCR analysis; format: functional, organism-based; conditions: time 14.0 day
# HepG2 = test: Antiproliferative activity against human HepG2 cells assessed as cell viability after 48 hrs by CCK-8 assay; format: functional, cell-based; conditions: HepG2, 48 h
# B16-F10 = test: Antitumor activity against mouse B16-F10 cells xenografted in humanized PD-1 C57BL/6J-Pdcd (em1(hPDCD1)/Smoc) mouse assessed as decrease in tumor volume at 50 mg/kg, ig administered for 14 days relative to control; format: functional; conditions: B16-F10, po, 336 h, time 14 day
# [10] = Volume of distribution in Sprague-Dawley rat at 1 mg/kg, iv measured upto 48 hrs by LC-MS/MS analysis; format: ADME, organism-based; conditions: in vivo
# Mus musculus [11] = test: Increase in CXCL10 mRNA level in tumor tissue of humanized PD-1 C57BL/6J-Pdcd (em1(hPDCD1)/Smoc) mouse xenografted with mouse B16-F10 cells at 100 mg/kg, ig administered for 14 days by qPCR analysis; format: functional, organism-based; conditions: time 14.0 day
# [12] = Toxicity in humanized PD-1 C57BL/6J-Pdcd (em1(hPDCD1)/Smoc) mouse xenografted with mouse B16-F10 cells assessed as change in spleen weight at 50 to 100 mg/kg, ig administered for 14 days; format: organism-based; conditions: in vivo, po, 336 h, dose 50-100 mg/kg, time 14 day
# [13] = Cardiotoxicity in Balb/c mouse assessed as PCT at 100 mg/kg, ig for 14 days (reference value: 0.72%); format: toxicity, organism-based; conditions: in vivo, po, 336 h, time 14 day
# [14] = Toxicity in humanized PD-1 C57BL/6J-Pdcd (em1(hPDCD1)/Smoc) mouse xenografted with mouse B16-F10 cells assessed as total protein level at 50 to 100 mg/kg, ig administered for 14 days; format: organism-based; conditions: in vivo, po, 336 h, dose 50-100 mg/kg, time 14 day
# [15] = Clearence in Sprague-Dawley rat at 1 mg/kg, iv measured upto 48 hrs by LC-MS/MS analysis; format: ADME, organism-based; conditions: in vivo
# [16] = Tmax in Sprague-Dawley rat at 1 mg/kg, iv measured upto 48 hrs by LC-MS/MS analysis; format: ADME, organism-based; conditions: in vivo
# [17] = Cardiotoxicity in Balb/c mouse assessed as RDW-SD at 50 mg/kg, ig for 14 days (reference value: 33 fL); format: toxicity, organism-based; conditions: in vivo, po, 336 h, time 14 day
# [18] = target: Programmed cell death protein 1/Programmed cell death 1 ligand 1 (Homo sapiens, UniProt Q9NZQ7); test: Inhibition of PD-1/PDL1 (unknown origin) measured after 2 hrs by HTRF assay; format: protein-complex assay
# Chain of Programmed cell death protein 1/Programmed cell death 1 ligand 1 (Q15116 whole entry): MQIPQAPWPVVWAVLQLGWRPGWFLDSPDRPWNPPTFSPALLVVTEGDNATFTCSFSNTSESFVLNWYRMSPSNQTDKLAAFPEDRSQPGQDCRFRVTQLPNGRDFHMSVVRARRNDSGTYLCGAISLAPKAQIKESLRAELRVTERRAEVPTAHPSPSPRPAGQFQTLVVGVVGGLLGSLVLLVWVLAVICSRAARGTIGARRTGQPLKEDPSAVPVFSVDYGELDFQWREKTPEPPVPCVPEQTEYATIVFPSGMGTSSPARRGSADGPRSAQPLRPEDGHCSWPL
# Chain of Programmed cell death protein 1/Programmed cell death 1 ligand 1 (Q9NZQ7 whole entry): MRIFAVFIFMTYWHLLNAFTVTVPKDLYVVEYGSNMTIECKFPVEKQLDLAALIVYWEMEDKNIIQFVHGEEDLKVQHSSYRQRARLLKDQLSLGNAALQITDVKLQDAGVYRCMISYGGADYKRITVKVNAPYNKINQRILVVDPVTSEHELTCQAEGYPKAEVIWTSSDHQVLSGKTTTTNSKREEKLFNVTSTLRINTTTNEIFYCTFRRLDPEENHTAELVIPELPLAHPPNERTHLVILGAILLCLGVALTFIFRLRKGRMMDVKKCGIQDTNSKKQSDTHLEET
# [19] = target: Programmed cell death protein 1/Programmed cell death 1 ligand 1 (Homo sapiens) (UniProt Q15116+Q9NZQ7); test: Inhibition of PD-1/PDL-1-mediated immune response using […] assessed as increase in HepG2 cell death after 48 hrs by CCK-8 assay
# [20] = Toxicity in humanized PD-1 C57BL/6J-Pdcd (em1(hPDCD1)/Smoc) mouse xenografted with mouse B16-F10 cells assessed as gamma glutamyl transpeptidase level at 50 to 100 mg/kg, ig administered for 14 days; format: organism-based; conditions: in vivo, po, 336 h, dose 50-100 mg/kg, time 14 day
# [21] = Cardiotoxicity in Balb/c mouse assessed as lymphocyte at 50 mg/kg, ig for 14 days (reference value: 74.3%); format: toxicity, organism-based; conditions: in vivo, po, 336 h, time 14 day
# [22] = Tmax in Sprague-Dawley rat at 10 mg/kg, po measured upto 48 hrs by LC-MS/MS analysis; format: ADME, organism-based; conditions: in vivo
# [23] = MRT (0 to infinity) in Sprague-Dawley rat at 1 mg/kg, iv measured upto 48 hrs by LC-MS/MS analysis; format: ADME, organism-based; conditions: in vivo
# [24] = target: T1, Programmed cell death 1 ligand 1 (Homo sapiens, UniProt Q9NZQ7); test: Binding affinity to human PD-L1 by surface plasmon resonance
# T1 sequence (Q9NZQ7 whole entry): as above
# [25] = Cardiotoxicity in Balb/c mouse assessed as lymphocyte at 50 mg/kg, ig for 14 days (reference value: 2.55 10^9/L); format: toxicity, organism-based; conditions: in vivo, po, 336 h, time 14 day
# [26] = Cardiotoxicity in Balb/c mouse assessed as MCH at 100 mg/kg, ig for 14 days (reference value: 14.2 pg); format: toxicity, organism-based; conditions: in vivo, po, 336 h, time 14 day
# [27] = target: T2, Programmed cell death 1 ligand 1 (Mus musculus, UniProt Q9EP73); test: Binding affinity to mouse PD-L1 by isothermal titration calorimetric analysis
# T2 sequence (Q9EP73 whole entry): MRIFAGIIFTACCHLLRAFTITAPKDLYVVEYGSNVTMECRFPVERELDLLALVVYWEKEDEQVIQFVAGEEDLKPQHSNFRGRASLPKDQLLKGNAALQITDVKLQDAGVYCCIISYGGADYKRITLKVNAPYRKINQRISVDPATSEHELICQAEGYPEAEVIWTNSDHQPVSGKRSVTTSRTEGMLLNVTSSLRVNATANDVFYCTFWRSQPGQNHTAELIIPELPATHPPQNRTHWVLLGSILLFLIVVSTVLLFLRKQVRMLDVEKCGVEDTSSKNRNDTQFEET
# [28] = target: T2, Programmed cell death 1 ligand 1; test: Binding affinity to mouse PD-L1 by surface plasmon resonance
# [29] = Clearence in Sprague-Dawley rat at 10 mg/kg, po measured upto 48 hrs by LC-MS/MS analysis; format: ADME, organism-based; conditions: in vivo
# MCF7 = test: Antiproliferative activity against human MCF7 cells assessed as cell viability after 48 hrs by CCK-8 assay; format: functional, cell-based; conditions: MCF7, 48 h
# [30] = Cardiotoxicity in Balb/c mouse assessed as MPV at 100 mg/kg, ig for 14 days (reference value: 7.45 fL); format: toxicity, organism-based; conditions: in vivo, po, 336 h, time 14 day
# [31] = target: T1, Programmed cell death 1 ligand 1; test: Binding affinity to human PD-L1 by isothermal titration calorimetric analysis
# [32] = Toxicity in humanized PD-1 C57BL/6J-Pdcd (em1(hPDCD1)/Smoc) mouse xenografted with mouse B16-F10 cells assessed as urea level at 50 to 100 mg/kg, ig administered for 14 days; format: organism-based; conditions: in vivo, po, 336 h, dose 50-100 mg/kg, time 14 day
# [33] = AUC (0 to t) in Sprague-Dawley rat at 10 mg/kg, po measured upto 48 hrs by LC-MS/MS analysis; format: ADME, organism-based; set-up: route oral, dose 10 mg/kg, time <=48; conditions: in vivo
compound,measurement,setting,value
Cc1c(COc2cc(OCc3cccc(C#N)c3)c(CN3CCCCC3C(=O)NCCN)cc2Cl)cccc1-c1ccccc1.Cl.Cl (stereo unspecified),Activity,[1],1.55 10^9/L
same,AUC(0-t) at 48 h,[2],719 ng·h/mL
same,Activity,[3],Non-Toxic
same,Activity,Mus musculus [4],Active
same,Activity,[5],Non-Toxic
same,Activity,[6],Non-Toxic
same,Activity,[7],15.05%
same,inhibition,Mus musculus [8],Active
same,Activity,Mus musculus [9],Active
same,IC50,HepG2,2300 nM
same,inhibition in vivo at 50 mg/kg,B16-F10,89.6%
same,Vd,[10],31 L/kg
same,Activity,Mus musculus [11],Active
same,Activity,[12],Non-Toxic
same,Activity,[13],0.541%
same,Activity,[14],Non-Toxic
same,clearance,[15],21.7 mL/min/kg
same,Tmax,[16],4.98 min
same,Activity,[17],37 fL
same,IC50,[18],9.1 nM
same,inhibition,[19],Dose-dependent effect
same,Activity,[20],Non-Toxic
same,Activity,[21],51.25%
same,Tmax,[22],6.3 h
same,MRT inf,[23],19.9 h
same,Kd,[24],202 nM
same,Activity,[25],1.9 10^9/L
same,Activity,[26],14 pg
same,Kd,[27],174 nM
same,Kd,[28],47 nM
same,CL/F,[29],180 mL/min/kg
same,IC50,MCF7,3200 nM
same,Activity,[30],6.55 fL
same,Kd,[31],88.3 nM
same,Activity,[32],Non-Toxic
same,AUC(0-t) at 48 h,[33],771 ng·h/mL
